Assay results reported in article PMC12596218 (Journal of Lipid Research, 2025).
“And” between values parts separate entries of the source, which are not always exact repeats. Identical values can stand only once. Like-named read-outs stand apart in the source and are kept apart here.

What was measured:
OATP1B3 [1] = biological target: T1, OATP1B3 (Homo sapiens, UniProt Q9NPD5); assay: [3H]BSP transport inhibition assay in OATP1B3-HEK293 cells; type: cell-based; conditions: 1 μM [3H]BSP, 10 min; two independent experiments
T1 construct: stably transfected with the full open reading frames of human NTCP, ASBT, SOAT, OATP1B1, OATP1B3, OATP2B1, and murine Asbt (mAsbt); expressed in transfected cells; host or cells: HEK293, stably transfected (OATP1B3-HEK), tetracycline-induced
T1 sequence (Q9NPD5 1-702): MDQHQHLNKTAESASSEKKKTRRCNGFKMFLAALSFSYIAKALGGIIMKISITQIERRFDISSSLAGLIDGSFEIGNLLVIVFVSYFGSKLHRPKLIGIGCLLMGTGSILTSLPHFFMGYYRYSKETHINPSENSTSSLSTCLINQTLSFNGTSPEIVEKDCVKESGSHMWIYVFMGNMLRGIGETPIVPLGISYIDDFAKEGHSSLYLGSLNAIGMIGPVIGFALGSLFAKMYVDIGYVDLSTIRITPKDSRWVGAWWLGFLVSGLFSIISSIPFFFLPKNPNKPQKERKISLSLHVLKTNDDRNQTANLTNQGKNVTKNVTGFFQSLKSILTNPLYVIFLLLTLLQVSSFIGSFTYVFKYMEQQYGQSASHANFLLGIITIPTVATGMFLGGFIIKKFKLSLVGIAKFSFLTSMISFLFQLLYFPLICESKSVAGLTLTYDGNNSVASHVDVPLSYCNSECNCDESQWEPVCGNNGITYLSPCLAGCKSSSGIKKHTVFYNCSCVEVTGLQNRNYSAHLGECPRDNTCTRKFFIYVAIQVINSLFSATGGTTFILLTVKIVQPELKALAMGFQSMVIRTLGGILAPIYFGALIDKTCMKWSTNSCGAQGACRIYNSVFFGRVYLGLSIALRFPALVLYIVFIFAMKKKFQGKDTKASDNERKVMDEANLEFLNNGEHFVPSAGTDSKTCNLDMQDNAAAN
Source text: (§1) Human embryonic kidney HEK293 cells, stably transfected with the full open reading frames of human NTCP, ASBT, SOAT, OATP1B1, OATP1B3, OATP2B1, and murine Asbt (mAsbt) were used as reported ([18], [20], [21], [22], [23]). The NTCP, ASBT, and mAsbt constructs were C-terminally tagged with the FLAG epitope, and the SOAT construct was C-terminally tagged with green fluorescent protein. Non-transfected Flp-In HEK293 cells (Thermo Fisher Scientific) served as the control. All cell lines were maintained at 37°C, 5% CO2 and 95% humidity in DMEM/F-12 medium (Thermo Fisher Scientific) supplemented with 10% fetal calf serum (Sigma-Aldrich), 4 mM L-glutamine (PAA) and penicillin/streptomycin (PAA). Expression of the respective carrier protein was induced by tetracycline treatment at 1 μg/ml (Carl Roth GmbH + Co. KG).
(§2) Cells were seeded onto poly-L-lysine-coated 96-well plates, induced with 1 μg/ml tetracycline, and grown to confluence over 72 h at 37°C. Then, cells were washed with tempered (37°C) phosphate-buffered saline (PBS, containing 137.0 mM NaCl, 2.7 mM KCl, 1.5 mM KH2PO4, and 7.3 mM Na2HPO4, at pH 7.4) and preincubated with 80 μl sodium transport buffer (STB, containing 142.9 mM NaCl, 4.7 mM KCl, 1.2 mM MgSO4, 1.2 mM KH2PO4, 1.8 mM CaCl2, and 20.0 mM HEPES, at pH 7.4) for 5 min at 37°C. For inhibition studies, the medium was replaced by 80 μl STB containing the respective inhibitor or solvent alone and cells were further incubated for 5 min at 37°C. Transport experiments were started by adding 20 μl of a 5-fold concentrated substrate solution (solved in STB). For transport experiments under sodium-free conditions the same buffer composition was used as for STB, but sodium chloride was substituted with equimolar concentrations of choline chloride as previously reported ([20], [24]). Transport experiments were stopped by washing twice with ice-cold PBS and the plates were kept cool on ice until adding the lysis buffer [1% sodium dodecyl sulfate (SDS) and 1 N NaOH]. Then, the cell-associated radioactivity of the respective tritium-labeled substrate or ligand was quantified by liquid scintillation counting using MicroScint-20 scintillation cocktail (Revvity) in a Packard Microplate Scintillation Counter TopCount NXT (Packard Instrument Company). For IC50 transport inhibition measurements, the mean uptake values measured in non-carrier-expressing HEK293 control cells were defined as 0% uptake control and were subtracted from all other values. Values from cells without inhibitor and solvent alone were set to 100%. Finally, all net transport data were expressed as uptake or binding as % of control. All transport or inhibition graphs were generated with GraphPad Prism 6 (GraphPad). Determination of half maximal inhibitory concentrations (IC50) was done by nonlinear regression analysis using the equation log (inhibitor) versus response—variable slope settings. All data points of the IC50 curves represent means ± SD of quadruplicate determinations. For Km measurements, BS uptake in the absence of sodium was regarded as carrier-independent unspecific uptake and was subtracted from the transport rates in the presence of sodium to obtain carrier-specific uptake rates (indicated as dashed lines). From the specific uptake rates, Michaelis Menten Km values were calculated by non-linear regression analysis.

ASBT = biological target: T2, ASBT (Homo sapiens, UniProt Q12908); assay: [3H]TC transport and inhibition assay in ASBT-HEK293 cells; type: cell-based; conditions: for IC50: 1 μM [3H]TC, 10 min, ASBT-HEK293, two independent experiments
T2 construct: stably transfected with the full open reading frames of human NTCP, ASBT, SOAT, OATP1B1, OATP1B3, OATP2B1, and murine Asbt (mAsbt); expressed in transfected cells; host or cells: HEK293 (Flp-In), stably transfected, tetracycline-induced
T2 sequence (Q12908 1-348): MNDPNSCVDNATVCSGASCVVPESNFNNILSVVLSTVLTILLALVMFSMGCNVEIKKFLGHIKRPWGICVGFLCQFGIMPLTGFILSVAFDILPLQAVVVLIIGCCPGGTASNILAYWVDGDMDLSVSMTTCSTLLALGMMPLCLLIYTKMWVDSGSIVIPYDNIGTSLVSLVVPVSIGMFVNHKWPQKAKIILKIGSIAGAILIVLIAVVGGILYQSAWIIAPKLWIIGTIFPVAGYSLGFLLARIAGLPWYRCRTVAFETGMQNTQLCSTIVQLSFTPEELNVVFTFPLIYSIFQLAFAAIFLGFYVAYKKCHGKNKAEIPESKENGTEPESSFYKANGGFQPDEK
Source text: as §1, §2

OATP1B3 [2] = conditions: cited from earlier work; for IC50: read-out: IC50 OATP1B3 inhibition

Row | IC50 (OATP1B3 [1]) | IC50 (ASBT) | SMILES | other results
1 | 2 to 8 µM and 7.8 µM and 5.1 µM | 200 nM and 230 nM | CCCCC1(CCCC)CS(=O)(=O)c2ccc(N(C)C)cc2[C@@H](c2ccc(OCCCC[N+]34CCN(CC3)CC4)cc2)[C@H]1O [SC-435] | 
2 | 4.8 µM and 4.2 µM | 110 nM and 230 nM | CCCCC1(CCCC)CN(c2ccccc2)c2cc(SC)c(OCC(=O)N[C@@H](C(=O)NCC(=O)O)c3ccccc3)cc2S(=O)(=O)C1 [elobixibat] | IC50 (OATP1B3 [2]; in vitro studies, ref PMDA Goofice Report on the Deliberation Results): > 600 nM; IC50 ratio for ASBT versus NTCP inhibition (ASBT; measured in this study): 0.002-0.006
3 | 2 to 8 µM and 3.6 µM and 2.2 µM | 180 nM and 250 nM | CCCC[C@]1(CC)CS(=O)(=O)c2cc(CNC(CC(=O)O)CC(=O)O)c(OC)cc2[C@@H](c2ccccc2)N1 [linerixibat] | Substrate of OATP1B3 (OATP1B3 [2]): is a substrate; IC50 (OATP1B3 [2]; ref 65 Zamek-Gliszczynski et al. (2021)): 265 nM; Transport inhibition at highest substrate concentration (ASBT; 500 μM [3H]TC): full transport inhibition; Slope of IC50 values versus TC substrate concentration (ASBT; [3H]TC 0.3-500 μM, linear regression): 4.0 × 10^−4
4 | 5.5 µM and 5.2 µM |  | CCCCC1(CCCC)CS(=O)(=O)c2ccc(N(C)C)cc2[C@@H](c2ccc(OCc3ccc(C[N+]45CCN(CC4)CC5)cc3)cc2)[C@H]1O [maralixibat] | OATP1B3 inhibition (in words) (OATP1B3 [2]; in vitro, ref FDA NDA 214662 Livmarli): In vitro, maralixibat did not inhibit the transporters OATP1B1 and OATP1B3.
5 | 5.1 µM and 4.3 µM | 680 nM and 990 nM | CCCCC1(CCCC)CN(c2ccccc2)c2cc(SC)c(OCC(=O)N[C@@H](C(=O)N[C@@H](CC)C(=O)O)c3ccc(O)cc3)cc2S(=O)(=O)N1 [odevixibat] | IC50 (OATP1B3 [2]; in vitro studies, ref FDA NDA 215498 BYLVAY): 697 nM; OATP1B3 inhibition (in words) (OATP1B3 [2]; ref EMA EPAR Product Information Bylvay): Odevixibat does not inhibit OATP1B1 and OATP1B3.
